Laboratory results as given in patent US20260284201A1, “COMPOSITIONS AND METHODS FOR TREATING TENDON AND BONE INJURIES” (The United States Government as represented by the …, priority 2023, published 2026).

Key:
[1] = system: canine tendon-to-bone healing; details: cited from earlier work
[2] = system: osteoclasts; details: cited from earlier work
[3] = system: osteoporotic rats; details: cited from earlier work
[4] = system: rat rotator cuff repairs; details: cited from earlier work
[5] = system: osteoporotic mouse model; details: 1.25 mg/kg intravenously; cited from earlier work
[6] = system: fracture healing; details: 1.25 mg/kg systemically once per week; cited from earlier work
[7] = system: mice in space; assay: Bone volume among mice in space (unpublished data); format: in vivo; details: 10 mg/kg once per week

For `NCCCC(O)(P(=O)(O)O)P(=O)(O)O` [alendronate], the “incidence of suture pull through tendon” value [1] is given as “lower incidence of suture pull through tendon” and the “ultimate load to failure” value [1] is given as “improved ultimate load to failure”.

For methylhydroxyl diphosphonate, the “inhibition of the function of osteoclasts” value [2] is listed as “do not inhibit the function of osteoclasts”.

In the case of `O=P(O)(O)C(O)(Cc1cccnc1)P(=O)(O)O` [risedronate], the rotator cuff healing [3] is given as “beneficial to rotator cuff healing”.

In the case of `CC(O)(P(=O)(O)O)P(=O)(O)O` [etidronate], the “inhibition of the function of osteoclasts” value [2] is listed as “do not inhibit the function of osteoclasts”.

In the case of `O=P(O)(O)C(O)(Cn1ccnc1)P(=O)(O)O` [zolendronate], the tendon-to-bone healing [4] is given as “negative effects on tendon-to-bone healing”.

B1: rhNELL-1: recombinant human NELL-1 (protein, UniProt Q92832 22-810, looked up)
Protein kinase C-binding …: FGMDPDLQMDIVTELDLVNTTLGVAQVSGMHNASKAFLFQDIEREIHAAPHVSEKLIQLFRNKSEFTILATVQQKPSTSGVILSIRELEHSYFELESSGLRDEIRYHYIHNGKPRTEALPYRMADGQWHKVALSVSASHLLLHVDCNRIYERVIDPPDTNLPPGINLWLGQRNQKHGLFKGIIQDGKIIFMPNGYITQCPNLNHTCPTCSDFLSLVQGIMDLQELLAKMTAKLNYAETRLSQLENCHCEKTCQVSGLLYRDQDSWVDGDHCRNCTCKSGAVECRRMSCPPLNCSPDSLPVHIAGQCCKVCRPKCIYGGKVLAEGQRILTKSCRECRGGVLVKITEMCPPLNCSEKDHILPENQCCRVCRGHNFCAEGPKCGENSECKNWNTKATCECKSGYISVQGDSAYCEDIDECAAKMHYCHANTVCVNLPGLYRCDCVPGYIRVDDFSCTEHDECGSGQHNCDENAICTNTVQGHSCTCKPGYVGNGTICRAFCEEGCRYGGTCVAPNKCVCPSGFTGSHCEKDIDECSEGIIECHNHSRCVNLPGWYHCECRSGFHDDGTYSLSGESCIDIDECALRTHTCWNDSACINLAGGFDCLCPSGPSCSGDCPHEGGLKHNGQVWTLKEDRCSVCSCKDGKIFCRRTACDCQNPSADLFCCPECDTRVTSQCLDQNGHKLYRSGDNWTHSCQQCRCLEGEVDCWPLTCPNLSCEYTAILEGECCPRCVSDPCLADNITYDIRKTCLDSYGVSRLSGSVWTMAGSPCTTCKCKNGRVCCSVDFECLQNN
In the case of B1, the bone formation [5] is listed as “lead to bone formation”.

B2: NELL-1-PEG: chemically modified version of NELL-1 protein using polyethylene glycol (PEGylation) (protein, UniProt Q92832 22-810, looked up)
Protein kinase C-binding …: B1 Protein kinase C-binding …
modifications: PEG
For B2, the “ectopic bone formation, radiographically or on organ retrieval analysis” value [6] is listed as “no evidence of ectopic bone formation”, the fracture healing [6] is listed as “enhance fracture healing” and the toxicology testing [6] is listed as “no abnormalities detected on toxicology testing”.

B3: BP-NELL-1-PEG: NELL-1-PEG covalently bound to BP molecules (conjugate, UniProt Q92832 22-810, looked up)
Protein kinase C-binding …: B1 Protein kinase C-binding …
modifications: PEG; bisphosphonate conjugate
With B3 the bone volume [7] was “preserve bone volume”.
